In publication PMC5215716, “A Target-Based Whole Cell Screen Approach To Identify Potential Inhibitors of Mycobacterium tuberculosis Signal Peptidase” (ACS Infectious Diseases, 2016):
In brackets after ≈: the same amount, converted by molar mass. Like-named read-outs stand apart in the source and are kept apart here. Marks after values point to notes of the source that are not given here.

Legend:
[1] = tested on: wild-type (wt) M. tuberculosis strain; experiment: microbe, parasite or virus in culture; type: cell-based, Mycobacterium tuberculosis; details: Mycobacterium tuberculosis
in vitro = type: cell-based, African green monkey; details: African green monkey
Protocol: Cytotoxicity against African green monkey adult kidney cell (Vero cells) was determined as previously described using CellTiter-Glo reagent.[44] The concentration causing 50% growth inhibition (IC50) was calculated by fitting the inhibition curves using the Levenberg–Marquardt algorithm.

[2] = tested on: M. tuberculosis strain SPAM13C (LepB-UE); experiment: microbe, parasite or virus in culture; type: cell-based, Mycobacterium tuberculosis; details: for MIC: Mycobacterium tuberculosis; for Change in potency against LepB-UE compared to compound 1: decrease in potency relative to compound 1
LepB = target: T1, LepB (Mycobacterium tuberculosis, UniProt P9WKA1); experiment: LepB membrane assay (fluorogenic signal peptide cleavage by cell membrane fraction); type: biochemical; details: M. tuberculosis H37Rv cell membrane fraction, 2 μM peptide substrate, 4 h at 37 °C
T1 construct: we used purified membrane fractions to develop an in vitro assay for signal peptide cleavage; host or cells: γ-irradiated whole M. tuberculosis H37Rv; Triton X-114 membrane fraction
T1 sequence (P9WKA1 1-294): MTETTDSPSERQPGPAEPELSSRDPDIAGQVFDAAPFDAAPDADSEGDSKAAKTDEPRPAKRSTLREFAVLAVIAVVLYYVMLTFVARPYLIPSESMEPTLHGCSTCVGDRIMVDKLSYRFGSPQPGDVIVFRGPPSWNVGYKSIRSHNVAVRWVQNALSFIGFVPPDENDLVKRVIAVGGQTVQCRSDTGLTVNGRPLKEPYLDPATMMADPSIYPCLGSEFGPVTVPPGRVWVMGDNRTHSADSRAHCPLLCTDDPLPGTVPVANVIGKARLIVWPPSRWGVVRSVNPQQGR

[3] = 120 h, […], OD590 after 5 days at 37 °C, average ± SD of at least two experiments, b = single value, read-out: WT MIC
[4] = M. tuberculosis strain SPAM13C, OD590 after 5 days at 37 °C, average ± SD of at least two experiments, b = single value
[5] = 120 h, M. tuberculosis strain SPAM13C, OD590 after 5 days at 37 °C, average ± SD of at least two experiments, b = single value, read-out: LepB-UE MIC

C/C(=N\Nc1nc(C)cc(C)n1)c1ccccc1O [Compound 24]
MIC [1, 3]: 40 ± 8 µM (≈ 10.3 µg/mL)
CC50 (in vitro): 67 µM
LepB-UE MIC [2, 4]: 30 ± 3 µM
MIC [2, 5]: 30 to 90 µM (≈ 7.69 to 23.1 µg/mL)
Change in potency against LepB-UE compared to compound 1 [2]: at least 10 fold

CC(C)=NNc1nc(C)cc(C)n1 [Compound 25]
MIC [1, 3]: > 200 µM
CC50 (in vitro): > 100 µM
MIC [2, 5]: > 200 µM

C/C(=N\Nc1nc(C)cc(C)n1)c1cccnc1 [Compound 26]
MIC [1, 3]: > 200 µM
MIC [2, 5]: > 200 µM

Cc1cc(C)nc(NN=C(c2ccccc2)c2ccccc2)n1 [Compound 27]
MIC [1, 3]: 17 ± 8 µM (≈ 5.14 µg/mL)
CC50 (in vitro): 0.1 µM
IC50 (LepB): > 200 µM
MIC [2, 5]: 2.2 ± 0.7 µM (≈ 0.665 µg/mL)
Change in potency against LepB-UE compared to compound 1 [2]: little impact on antitubercular activity compared to compound 1

C/C(=N\Nc1nnc2c(n1)[nH]c1ccc(C)cc12)c1ccccn1 [Compound 28]
MIC [1, 3]: > 200 µM
CC50 (in vitro): 1.2 µM
IC50 (LepB): 87 µM
MIC [2, 5]: 4.8 ± 2.4 µM (≈ 1.52 µg/mL)
Change in potency against LepB-UE compared to compound 1 [2]: activity was comparable to that of 1

C/C(=N\Nc1ccccn1)c1ccccn1 [Compound 29]
MIC [1, 3]: > 200 µM
CC50 (in vitro): > 100 µM
MIC [2, 5]: 130 µM (≈ 27.6 µg/mL)
Change in potency against LepB-UE compared to compound 1 [2]: 42 fold

C/C(=N\NC(=N)c1ccccn1)c1ccccn1 [Compound 30]
MIC [1, 3]: 47 ± 6 µM (≈ 11.2 µg/mL)
CC50 (in vitro): 59 µM
MIC [2, 5]: 7.7 ± 0.2 µM (≈ 1.84 µg/mL)
Change in potency against LepB-UE compared to compound 1 [2]: activity was comparable to that of 1

C/C(=N\NC(=O)c1ccncc1)c1ccccn1 [Compound 31]
MIC [1, 3]: 4.7 ± 0.3 µM (≈ 1.13 µg/mL)
CC50 (in vitro): 10 µM
LepB-UE MIC [2, 4]: 3.6 ± 0.7 µM
MIC [2, 5]: 3.5 to 15 µM (≈ 0.841 to 3.6 µg/mL)
Change in potency against LepB-UE compared to compound 1 [2]: activity was comparable to that of 1

N=C(N/N=C/c1cccc(Cl)c1)c1ccccn1 [Compound 32]
MIC [1, 3]: 59 µM (≈ 15.3 µg/mL)
CC50 (in vitro): 62 µM
MIC [2, 5]: 41 µM (≈ 10.6 µg/mL)

C/C(=N\NC(=O)c1ccc(Br)o1)c1ccccn1 [Compound 35]
MIC [1, 3]: 5.3 ± 3.3 µM (≈ 1.63 µg/mL)
CC50 (in vitro): 0.6 µM
LepB-UE MIC [2, 4]: 8.2^b μM

C/C(=N\NC(=O)c1cc(Br)ccc1O)c1ccccn1 [Compound 37]
MIC [1, 3]: 4.2 ± 2.6 µM (≈ 1.4 µg/mL)
CC50 (in vitro): 5.4 µM
LepB-UE MIC [2, 4]: 2.0 ± 0.5 µM
MIC [2, 5]: 2 to 2.5 µM (≈ 0.668 to 0.835 µg/mL)

C/C(=N\NC(N)=S)c1ccccn1 [Compound 41]
MIC [1, 3]: 4 µM (≈ 0.777 µg/mL)
CC50 (in vitro): 22 µM
Differential activity (difference in MIC, wt versus LepB-UE) [2]: equally potent toward both wt and LepB-UE
MIC [2, 5]: 3.6 µM (≈ 0.699 µg/mL)
Change in potency against LepB-UE compared to compound 1 [2]: comparable to that of 1

CC1=NN(c2nc(C)cc(C)n2)C(=O)C1Cc1ccccc1 (stereo not shown) [Compound 45]
MIC [1, 3]: 68 ± 12 µM (≈ 20 µg/mL)
CC50 (in vitro): > 100 µM
MIC [2, 5]: 56 ± 3 µM (≈ 16.5 µg/mL)

CCOC(=O)c1c(C)nn(-c2nc(C)cc(C)n2)c1N [Compound 48]
MIC [1, 3]: > 200 µM
CC50 (in vitro): > 100 µM
MIC [2, 5]: 44 ± 6 µM (≈ 12.1 µg/mL)

Cc1cc(C)nc(-n2nc(C)c3c2CC(c2cccs2)CC3=O)n1 (stereo not shown) [Compound 49]
MIC [1, 3]: > 200 µM
MIC [2, 5]: > 200 µM

Cc1cc(C)nc(-n2nc(C)c3c2NC(=O)CC3c2ccccc2)n1 (stereo not shown) [Compound 50]
MIC [1, 3]: > 200 µM
CC50 (in vitro): 66 µM
MIC [2, 5]: > 200 µM

CN(Cc1ccn(C)n1)C(=O)c1ccn(-c2ccc([N+](=O)[O-])cc2)n1 [Compound 51]
MIC [1, 3]: > 200 µM
CC50 (in vitro): > 100 µM
MIC [2, 5]: > 200 µM

Cc1ccn(-c2ccc(C(=O)O)cc2)n1 [Compound 52]
MIC [1, 3]: > 200 µM
CC50 (in vitro): > 100 µM
MIC [2, 5]: > 200 µM

Cc1ccc(C(N)=O)cc1-n1ccc(-c2cccnc2)n1 [Compound 53]
MIC [1, 3]: > 200 µM
CC50 (in vitro): > 100 µM
MIC [2, 5]: > 200 µM

CC(O)c1nc2cc(-n3ccc(-c4cnccn4)n3)ccc2[nH]1 (stereo not shown) [Compound 54]
MIC [1, 3]: > 200 µM
CC50 (in vitro): > 100 µM
MIC [2, 5]: > 200 µM

OCc1ccccc1-n1ccc(-c2cccnc2)n1 [Compound 55]
MIC [1, 3]: > 200 µM
CC50 (in vitro): > 100 µM
MIC [2, 5]: > 200 µM

Cc1ccc(C(N)=O)cc1-n1ccc(-c2cnccn2)n1 [Compound 56]
MIC [1, 3]: > 200 µM
CC50 (in vitro): > 100 µM
MIC [2, 5]: > 200 µM

CO[C@H]1/C=C/O[C@@]2(C)Oc3c(C)c(O)c4c(O)c(c(/C=N/N5CCN(C)CC5)c(O)c4c3C2=O)NC(=O)/C(C)=C\C=C\[C@H](C)[C@H](O)[C@@H](C)[C@@H](O)[C@@H](C)[C@H](OC(C)=O)[C@@H]1C [rifampicin, reference compound]
MIC ([1]; read-out: MIC against wt): 0.0077 ± 0.0023 µM (≈ 0.00634 µg/mL)
MIC ([2]; rifampicin, LepB-UE strain, read-out: MIC against LepB-UE): 0.0054 ± 0.0009 µM (≈ 0.00444 µg/mL)
